In PubChem BioAssay AID248 (DTP/NCI, 2004):
Where “and” joins values, the source holds several entries; their conditions need not be identical. Equal entries are not always repeated. Toxic doses and inconclusive results are not listed. Cut-off read from the data, not from the text of the source: active = T/C of 150% or more; inactive = T/C below 125%.

Tested on: L1210 leukemia ip in BDF1 mice, survival T/C
Assay: NCI In Vivo Anticancer Drug Screen. Data for tumor model L1210 Leukemia (intraperitoneal) in B6D2F1 (BDF1) mice
Conditions: endpoint: mean survival time, higher = longer survival
Procedure, shortened: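 Value reflects the ratio of survival in compound-treated mice to survival in vehicle-treated controls, with both groups carrying the same transplanted tumor.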

[1] = dose: 1.25 mg/kg/injection, schedule: Q01DX009 (ip), vehicle: saline
[2] = dose: 2.5 mg/kg/injection, schedule: Q01DX009 (ip), vehicle: saline
[3] = dose: 5.0 mg/kg/injection, schedule: Q01DX009 (ip), vehicle: saline
[4] = dose: 100.0 mg/kg/injection, schedule: Q01DX001 (ip), vehicle: saline
[5] = dose: 200.0 mg/kg/injection, schedule: Q01DX001 (ip), vehicle: saline
[6] = dose: 400.0 mg/kg/injection, schedule: Q01DX001 (ip), vehicle: saline
[7] = dose: 100.0 mg/kg/injection, schedule: Q04DX002 (ip), vehicle: saline
[8] = dose: 100.0 mg/kg/injection, schedule: Q04DX003 (ip), vehicle: Klucel (hydroxypropylcellulose) (HPC)
[9] = dose: 200.0 mg/kg/injection, schedule: Q04DX003 (ip), vehicle: Klucel (hydroxypropylcellulose) (HPC)
[10] = dose: 400.0 mg/kg/injection, schedule: Q04DX003 (ip), vehicle: Klucel (hydroxypropylcellulose) (HPC)
[11] = dose: 12.5 mg/kg/injection, schedule: Q04DX003 (ip), vehicle: saline
[12] = dose: 25.0 mg/kg/injection, schedule: Q04DX003 (ip), vehicle: saline
[13] = dose: 100.0 mg/kg/injection, schedule: Q04DX003 (ip), vehicle: saline with Tween-80
[14] = dose: 200.0 mg/kg/injection, schedule: Q04DX003 (ip), vehicle: saline with Tween-80
[15] = dose: 400.0 mg/kg/injection, schedule: Q04DX003 (ip), vehicle: saline with Tween-80
[16] = dose: 100.0 mg/kg/injection, schedule: Q01DX001 (ip), vehicle: other
[17] = dose: 200.0 mg/kg/injection, schedule: Q01DX001 (ip), vehicle: other
[18] = dose: 400.0 mg/kg/injection, schedule: Q01DX001 (ip), vehicle: other
[19] = dose: 100.0 mg/kg/injection, schedule: Q01DX009 (ip), vehicle: saline with Tween-80
[20] = dose: 200.0 mg/kg/injection, schedule: Q01DX009 (ip), vehicle: saline with Tween-80
[21] = dose: 400.0 mg/kg/injection, schedule: Q01DX009 (ip), vehicle: saline with Tween-80
[22] = dose: 100.0 mg/kg/injection, schedule: Q01DX009 (ip), vehicle: Klucel (hydroxypropylcellulose) (HPC)
[23] = dose: 200.0 mg/kg/injection, schedule: Q01DX009 (ip), vehicle: Klucel (hydroxypropylcellulose) (HPC)
[24] = dose: 400.0 mg/kg/injection, schedule: Q01DX009 (ip), vehicle: Klucel (hydroxypropylcellulose) (HPC)
[25] = dose: 200.0 mg/kg/injection, schedule: Q04DX002 (ip), vehicle: saline
[26] = dose: 100.0 mg/kg/injection, schedule: Q04DX003 (ip), vehicle: saline
[27] = dose: 200.0 mg/kg/injection, schedule: Q04DX003 (ip), vehicle: saline
[28] = dose: 400.0 mg/kg/injection, schedule: Q04DX003 (ip), vehicle: saline

Measured: T/C

NC(=O)C(O)(C(F)(F)F)C(F)(F)F
inactive: [1] 97 % of control | [2] 111 % of control | [3] 95 % of control | dose: 5.0 mg/kg/injection, schedule: Q04DX003 (ip), vehicle: saline 97 % of control | dose: 10.0 mg/kg/injection, schedule: Q01DX001 (ip), vehicle: saline 102 % of control | dose: 10.0 mg/kg/injection, schedule: Q04DX003 (ip), vehicle: saline 100 % of control | dose: 20.0 mg/kg/injection, schedule: Q01DX001 (ip), vehicle: saline 94 % of control

CC(C)/C=C/C1(C(C)C)C(=O)NC(=S)NC1=O
inactive: dose: 75.0 mg/kg/injection, schedule: Q01DX001 (ip), vehicle: saline 95 % of control | dose: 150.0 mg/kg/injection, schedule: Q01DX001 (ip), vehicle: saline 100 % of control | dose: 300.0 mg/kg/injection, schedule: Q01DX001 (ip), vehicle: saline 98 % of control

OC1C(SCc2ccccc2)OCC2OC3(CCCCC3)OC21 (stereo not given)
inactive: [4] 100 % of control | [5] 102 % of control | [6] 104 % of control

COc1cc(CC2COC(=O)C2Cc2ccc(OC3OC(CO)C(O)C(O)C3O)c(OC)c2)ccc1O (stereo not given)
inactive: dose: 25.0 mg/kg/injection, schedule: Q04DX002 (ip), vehicle: saline 111 % of control | dose: 50.0 mg/kg/injection, schedule: Q04DX002 (ip), vehicle: saline 104 % of control | [7] 107 % of control

COC1=C(c2ccccc2)C(=O)CCc2ccccc21
inactive: [8] 97 % of control | [9] 106 % of control | [10] 97 % of control

N=C(N)c1ccc(-c2[nH]c3cc(C(=N)N)ccc3c2-c2ccccc2)cc1
inactive: [11] 100 % of control and 110 % of control | [12] 100 % of control and 110 % of control | dose: 50.0 mg/kg/injection, schedule: Q04DX003 (ip), vehicle: saline 108 % of control and 112 % of control

O=NN1CC2CCC1CC2
inactive: [2] 109 % of control | [3] 109 % of control | dose: 10.0 mg/kg/injection, schedule: Q01DX009 (ip), vehicle: saline 102 % of control

CCN(CC)CC1CO1 (stereo not given)
inactive: dose: 7.5 mg/kg/injection, schedule: Q01DX009 (ip), vehicle: saline 102 % of control | dose: 15.0 mg/kg/injection, schedule: Q01DX009 (ip), vehicle: saline 97 % of control

O=c1oc2ccccc2c(O)c1C(C/C(=N/O)c1ccccc1)c1ccccc1 (stereo not given)
inactive: [13] 96 % of control | [14] 91 % of control | [15] 88 % of control

Cc1ccnc(NC2=CC(=O)C(=O)c3ccccc32)c1
inactive: [16] 93 % of control | [17] 95 % of control | [18] 103 % of control

COc1ccccc1C(=O)N/N=C/c1cccc2ccccc12
inactive: [19] 114 % of control | [13] 103 % of control | [20] 105 % of control | [14] 96 % of control | [21] 107 % of control | [15] 94 % of control

COc1ccc2ncc(C)c(C=O)c2c1
inactive: [22] 95 % of control | [23] 96 % of control | [24] 110 % of control

CCOC(=O)C1CCC(=O)N1C(=O)c1cc([N+](=O)[O-])cc([N+](=O)[O-])c1 (stereo not given)
inactive: [8] 97 % of control | [9] 92 % of control | [10] 94 % of control

CO[Si](C)(C)C
inactive: [4] 98 % of control | [5] 98 % of control | [6] 100 % of control

O=C(O)C1CC(c2ccccc2)=C(c2ccccc2)CC1C(=O)O (stereo not given)
inactive: dose: 50.0 mg/kg/injection, schedule: Q04DX002 (ip), vehicle: Klucel (hydroxypropylcellulose) (HPC) 105 % of control | dose: 100.0 mg/kg/injection, schedule: Q04DX002 (ip), vehicle: Klucel (hydroxypropylcellulose) (HPC) 102 % of control and 114 % of control and 100 % of control | dose: 200.0 mg/kg/injection, schedule: Q04DX002 (ip), vehicle: Klucel (hydroxypropylcellulose) (HPC) 102 % of control and 100 % of control

C#CCN(CC#C)C(C)=O
inactive: [7] 91 % of control | [25] 94 % of control

C=C(C)CON=C(c1ccccc1)c1ccccc1
inactive: [26] 92 % of control | [27] 96 % of control | [28] 97 % of control

CN(C)c1ccc(C2NC(c3ccccc3)c3c(ccc4ccccc34)O2)cc1 (stereo not given)
inactive: [4] 92 % of control | [26] 90 % of control | [5] 89 % of control | [6] 89 % of control | [28] 90 % of control

Cc1ccc(NS(=O)(=O)c2ccccc2)nc1
inactive: [19] 96 % of control | [13] 99 % of control | [20] 98 % of control | [14] 93 % of control | [21] 98 % of control | [15] 96 % of control

CC(C)(C)N(Cc1ccccc1)C(=O)Nc1ccccc1
inactive: [22] 97 % of control | [23] 110 % of control | [24] 103 % of control

COc1cc(C)c(O)c(C[P+](c2ccccc2)(c2ccccc2)c2ccccc2)c1
inactive: [13] 91 % of control | [14] 94 % of control

CC(=O)c1c(O)cc(O)cc1O
inactive: [19] 96 % of control | [20] 91 % of control | [21] 98 % of control

CN1CCc2ccccc2C1Cc1cc(OCc2ccccc2)ccc1N (stereo not given)
inactive: dose: 10.0 mg/kg/injection, schedule: Q01DX001 (ip), vehicle: carboxymethylcellulose (CMC) 89 % of control | dose: 20.0 mg/kg/injection, schedule: Q01DX001 (ip), vehicle: carboxymethylcellulose (CMC) 95 % of control | dose: 40.0 mg/kg/injection, schedule: Q01DX001 (ip), vehicle: carboxymethylcellulose (CMC) 93 % of control | dose: 80.0 mg/kg/injection, schedule: Q01DX001 (ip), vehicle: carboxymethylcellulose (CMC) 98 % of control

O=C1Nc2ccccc2CCc2ccccc21
inactive: dose: 100.0 mg/kg/injection, schedule: Q01DX009 (ip), vehicle: saline 87 % of control | [26] 94 % of control | dose: 200.0 mg/kg/injection, schedule: Q01DX009 (ip), vehicle: saline 100 % of control | [27] 100 % of control | dose: 400.0 mg/kg/injection, schedule: Q01DX009 (ip), vehicle: saline 89 % of control | [28] 96 % of control

Nc1ccc(N=Nc2ccccc2Cl)c(N)n1
inactive: dose: 50.0 mg/kg/injection, schedule: Q01DX001 (ip), vehicle: other 103 % of control | [16] 100 % of control | [17] 94 % of control | [18] 100 % of control

CC1OC(O[C@H]2C[C@@H](O)[C@]3(CO)[C@H]4[C@H](O)C[C@]5(C)[C@@H](C6=CC(=O)OC6)CC[C@]5(O)[C@@H]4CC[C@]3(O)C2)C(O)C(O)C1O (stereo not given in full)
inactive: dose: 0.31 mg/kg/injection, schedule: Q01DX009 (ip), vehicle: saline 101 % of control | dose: 0.63 mg/kg/injection, schedule: Q01DX009 (ip), vehicle: saline 101 % of control | [1] 98 % of control | [2] 102 % of control and 108 % of control | [11] 92 % of control | [12] 103 % of control

COc1ccc2ncccc2c1
inactive: [7] 111 % of control | [25] 101 % of control | dose: 400.0 mg/kg/injection, schedule: Q04DX002 (ip), vehicle: saline 104 % of control

CC(CCN(CC(=O)O)CC(=O)O)N(CC(=O)O)CC(=O)O (stereo not given)
inactive: [4] 98 % of control | [5] 101 % of control | [6] 93 % of control

CCN(Cc1ccncc1)C(=O)C(O)(c1ccccc1)c1ccccc1
inactive: dose: 100.0 mg/kg/injection, schedule: Q01DX001 (ip), vehicle: saline with Tween-80 93 % of control | dose: 200.0 mg/kg/injection, schedule: Q01DX001 (ip), vehicle: saline with Tween-80 88 % of control | dose: 400.0 mg/kg/injection, schedule: Q01DX001 (ip), vehicle: saline with Tween-80 87 % of control

CCC(C)NC(=O)NC (stereo not given)
inactive: [22] 100 % of control | [23] 97 % of control | [24] 101 % of control

CC(=O)OC(c1ccccc1)c1ccccn1 (stereo not given)
inactive: dose: 50.0 mg/kg/injection, schedule: Q01DX009 (ip), vehicle: saline with Tween-80 105 % of control | [19] 98 % of control | [20] 94 % of control
